Active and inactive are the calls of the source. The calls are words filed in the database; no cut-off is given here.
Key:
[1] = Toxicity in ip dosed rat; format: organism-based; details: in vivo
Rattus norvegicus [2] = test: Induction of stereotyped gnawling behavior in rat assessed as time duration of behavior administered by gastric tube; format: functional, organism-based
Rattus norvegicus [3] = test: Induction of stereotyped gnawling behavior in rat assessed as time duration at 30 umol/kg, ip relative to control; format: functional
Rattus norvegicus [4] = test: Induction of stereotyped gnawling behavior in rat assessed as time duration at 100 umol/kg, ip relative to control; format: functional
Rattus norvegicus [5] = test: Induction of stereotyped gnawling behavior in rat assessed as time duration at 200 umol/kg, ip relative to control; format: functional
Rattus norvegicus [6] = test: Induction of stereotyped gnawling behavior in ip dosed rat assessed as time duration; format: functional, organism-based
Rattus norvegicus [7] = test: Induction of turning behavior in rat at 50 to 200 umol/kg, ip; format: functional, organism-based
Striatum [8] = test: Induction of cAMP production in rat corpus striatum at 10 to 100 uM; format: functional, tissue-based
Striatum [9] = test: Induction of cAMP production in rat corpus striatum at 10 to 100 uM in presence of rat liver; format: functional, tissue-based
Liver = test: Prodrug conversion in rat liver at 0.4 mM after 60 mins; format: ADME, tissue-based; details: 1 h, 400 µM
Brain = test: Drug uptake in ip dosed mouse brain; format: ADME, organism-based; details: in vivo
Rattus norvegicus [10] = test: Induction of stereotyped gnawling behavior in ip dosed rat assessed as latency to peak score of stereotyped behavior; format: functional

In the case of `CN1CCc2cccc3c2[C@H]1Cc1ccc(OC(=O)C(C)(C)C)c(OC(=O)C(C)(C)C)c1-3.Cl`, the MTD [1] is reported as less than 300 mg/kg, the Activity (Rattus norvegicus [2]) is reported as “inactive” and the Time (Rattus norvegicus [3]) is reported as 3.1 h. For the same molecule, the Time (Rattus norvegicus [4]) was 5.1 h, the Time (Rattus norvegicus [5]) was 7.8 h and the Activity (Rattus norvegicus [6]) was “Dose-dependent effect”. For the same molecule, the Activity (Rattus norvegicus [7]) was “Active” and the Activity (Striatum [8]) was “inactive”.

For `CC(C)C(=O)Oc1ccc2c(c1OC(=O)C(C)C)-c1cccc3c1[C@@H](C2)N(C)CC3.Cl`, the MTD [1] was less than 300 mg/kg, the Activity (Rattus norvegicus [2]) was “inactive” and the Time (Rattus norvegicus [3]) was 2.5 h. For the same molecule, the Time (Rattus norvegicus [4]) was 3.3 h, the Time (Rattus norvegicus [5]) was 4.9 h and the Activity (Rattus norvegicus [6]) was “Dose-dependent effect”. The Activity (Rattus norvegicus [7]) was “Active”, the Activity (Striatum [8]) was “inactive” and the Activity (Striatum [9]) was “Active”. The Drug metabolism (Liver) was 55% and the Drug uptake (Brain) was “Active”.

For `CN1CCc2cccc3c2[C@H]1Cc1ccc(OC(=O)c2ccccc2)c(OC(=O)c2ccccc2)c1-3`, the MTD [1] was less than 300 mg/kg, the Activity (Rattus norvegicus [2]) was “inactive” and the Time (Rattus norvegicus [3]) was 3.8 h. The Time (Rattus norvegicus [4]) was 6.3 h, the Time (Rattus norvegicus [5]) was 10.8 h and the Activity (Rattus norvegicus [6]) was “Dose-dependent effect”. For the same molecule, the Time (Rattus norvegicus [10]) was 83 min, the Activity (Rattus norvegicus [7]) was “Active” and the Activity (Striatum [8]) was “inactive”. The Drug metabolism (Liver) was 9% and the Drug uptake (Brain) was “Active”.

With `CN1CCc2cccc3c2[C@H]1Cc1ccc(O)c(O)c1-3.CN1CCc2cccc3c2[C@H]1Cc1ccc(O)c(O)c1-3.Cl.Cl.O` [APOMORPHINE HYDROCHLORIDE] the MTD [1] was less than 300 mg/kg, the Activity (Rattus norvegicus [2]) was “inactive” and the Time (Rattus norvegicus [3]) was 1.6 h. The Time (Rattus norvegicus [4]) was 1.9 h, the Time (Rattus norvegicus [5]) was 2.6 h and the Time (Rattus norvegicus [10]) was 26 min. For the same molecule, the Activity (Rattus norvegicus [7]) was “Active”.

In the case of `CCC(=O)Oc1ccc2c(c1OC(=O)CC)-c1cccc3c1[C@@H](C2)N(C)CC3.Cl`, the MTD [1] is reported as less than 300 mg/kg, the Activity (Rattus norvegicus [2]) is reported as “inactive” and the Time (Rattus norvegicus [3]) is reported as 1.6 h. For the same molecule, the Time (Rattus norvegicus [4]) was 1.9 h, the Time (Rattus norvegicus [5]) was 2.9 h and the Activity (Rattus norvegicus [6]) was “inactive”. The Time (Rattus norvegicus [10]) was 41 min, the Activity (Rattus norvegicus [7]) was “Active” and the Activity (Striatum [8]) was “inactive”.

With `CC(=O)Oc1ccc2c(c1OC(C)=O)-c1cccc3c1[C@@H](C2)N(C)CC3` the MTD [1] was less than 300 mg/kg, the Activity (Rattus norvegicus [2]) was “inactive” and the Time (Rattus norvegicus [3]) was 2.1 h. For the same molecule, the Time (Rattus norvegicus [4]) was 2.3 h, the Time (Rattus norvegicus [5]) was 2.7 h and the Activity (Rattus norvegicus [6]) was “Active”. The Activity (Rattus norvegicus [7]) was “Active” and the Activity (Striatum [8]) was “inactive”.
